From patent US5928860A, “Process for determining the tolerance, or toxicity of gaseous, liquid and/or viscous substances for the human or animal organism” (priority 1997, dated 1999)

Assays:
[1] = tested on: explants of neonatal rabbit kidneys; assay type: cell-based
Description: An interactive tissue culture system was established for testing of toxicity. The culture system should provide information on whether the action of the substance perfluorophenathrene which changes the vessels can be established in vitro. Explants of neonatal rabbit kidneys were chosen as the test tissue. Antibodies for detection of vessels in the rabbit tissues are available in laboratory. In addition, the vascular system in this tissue has an extraordinarily high degree of spacial order. The preservation of the structure of the vascular system after application of the test substance was the parameter for assessment of the toxic effect in this test.
Tissue preparation: One to three day old rabbits were sacrificed by cervical dislocation. Organ explants were prepared immediately after removal of the kidneys.
The kidneys of neonatal rabbits are not yet completely developed. In the outermost region of the organ directly under the organ capsule, all nephron developments stages are found in addition to the embryonal tissue. Microsurgical organ explants were prepared from this region. To do this the kidneys were cut in half lengthwise. With fine tweezers the thin organ capsule was removed. With the organ capsule, the renal tissue still in development was detached. Proteases were not used in this preparation method, i.e. the organ-typical extracellular matrix and the intercellular connections remained intact. The organ explants were then stretched onto the retaining ring system.
Culture of the kidney explants: By using a retaining ring system it was possible to use tissue explants which had been […] for the tests. The tissue fragment was prepared in the corresponding size and fixed in the retaining ring. Proteolytic disintegration of the tissue, as can be necessary for culture in the conventional culture dish applications, was not carried out. The tissue fragment stretched onto the retaining ring was brought into contact with the tissue top or bottom with the test substance. The tissue top was defined as the side covered by the organ capsule. The tissue bottom was the tissue side exposed by the preparation. The tissue explants prepared in this way were cultivated with continuous throughflow of the medium. Use of perfusion culture technique in this case enabled complete abandonment of additives of fetal calf serum, adult serum or tissue extracts. The medium consists of a commercially available basic medium (Iscove's Modified Dulbecco's Medium, IMDM) to which the hormones aldosterone (10^-7 M) and 1.25 dihydroxyvitamin D3 (10^-9 M) have been added. In the presence of these hormones the structure of the renal tissue is completely preserved. Necroses were not observed even after culture times of more than 10 days.
For the perfusion culture, stretched explant 5 (organ samples) were inserted into the gradient chamber so that one upper and one lower compartment 6 or 7 are formed which are separated from one another by tissue 5. Upper compartment 6 was filled with the given test substance and no flow takes place through it in the experiment since the test substance was of viscous consistency. Throughflow of the test substance however would be possible in the application of liquid or gaseous substances.
Lower compartment 7 was filled with nutrient solution which was continuously pumped through the chamber compartment. Storage bottle 13 of the medium was connected via a hose connection 11 to the inlet 8 of lower chamber 7. Chamber outflow 9 was connected to the waste bottle. Storage bottle 13 was kept at 4° C. during the entire culture time. Supply hose 11 was inserted into 12 which ensured constant flushing of chamber with medium at 1 ml/h. […] Fundamentally other flow rates are possible. […]

rabbit eye [2] = conditions: in vivo
rabbit eye [3] = experiment: test of vitreous body replacements in the rabbit eye (animal test)

Description for tumor cells: In this example, two of these replacements (the substances perfluorophenathrene and perfluorodecaline) were studied. The substances have been tested in a cell culture system.
Cell culture systems are outstandingly suited for detection of acute toxic effects. They allow prompt testing of the direct toxic effect. If the toxicity of a substance is however based on cellular interactions, other systems must be used for analysis.

| Structure (SMILES) | Expression of EC 1 antigen [1] | Vascular structure [1] | expression of the EC 1 antigen / detection of endothelial cells [1] | damage to the retina or eye (rabbit eye [2]) | toxic effects in cell culture (tumor cells) | tolerance in animal test (rabbit eye [3]) | Tissue structure [1] | preservation of the vascular network / vascular system in renal explants [1] |
| --- | --- | --- | --- | --- | --- | --- | --- | --- |
| FC1(F)C(F)(F)C(F)(F)C2(F)C(F)(C1(F)F)C(F)(F)C(F)(F)C1(F)C(F)(F)C(F)(F)C(F)(F)C(F)(F)C12F (stereo not shown) [Perfluorophenathrene, perfluorophenathrene] | + | - | expression of the EC 1 antigen was not influenced | major damage to the eye |  |  |  |  |
| FC1(F)C(F)(F)C(F)(F)C2(F)C(F)(F)C(F)(F)C(F)(F)C(F)(F)C2(F)C1(F)F (stereo not shown) [Perfluorodecaline, perfluorodecaline] | + | + |  |  | no indications of toxic effects | good tolerance | + | excellent preservation of the vascular system |
